Measurements reported in patent US7109203B2, “Sulfonamide derivatives” (Novartis AG, priority 2001, dated 2006).
Where a SMILES comes first, the peptide text is derived from it. [ ]: non-standard residue; d: D form. Oic = O=C(O)[C@@H]1C[C@@H]2CCCC[C@@H]2N1; Hyp = O=C(O)[C@@H]1C[C@@H](O)CN1; dTic = O=C(O)[C@H]1Cc2ccccc2CN1; 2Thi = N[C@@H](Cc1cccs1)C(=O)O

Molecular target: T1, human bradykinin B1 receptor (Homo sapiens, UniProt P46663)
T1 construct: To upregulate expression of the B1 receptor the cells are treated with 100 units/ml of IL-1β; endogenous in cells; host or cells: WI-38 cells treated with 100 units/ml IL-1β for 3 hours
T1 sequence (P46663 1-353): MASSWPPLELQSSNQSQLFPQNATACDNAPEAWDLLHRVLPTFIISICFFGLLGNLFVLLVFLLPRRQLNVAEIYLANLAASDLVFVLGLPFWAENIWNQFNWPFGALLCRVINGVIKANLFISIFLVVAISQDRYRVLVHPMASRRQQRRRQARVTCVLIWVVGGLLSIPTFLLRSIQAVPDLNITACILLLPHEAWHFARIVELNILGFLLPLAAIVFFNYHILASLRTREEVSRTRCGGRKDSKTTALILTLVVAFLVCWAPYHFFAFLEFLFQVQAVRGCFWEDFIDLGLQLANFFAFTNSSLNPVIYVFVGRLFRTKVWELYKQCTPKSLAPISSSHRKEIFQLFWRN
Test: Test I: Bradykinin Receptor Binding Assay ([3H]-desArg10kallidin displacement, IL-1β-treated WI-38 cells)
Settings: displacement of [3H]-desArg10kallidin, KI from IC50 by Cheng-Prussoff equation
Method: WI-38 cells are grown in Dulbecco's Modified Eagle Medium s supplemented with 1% non-essential amino acids, 2 mM L-glutamine, 100 IU/ml penicillin, 100 μg/ml streptomycin and 10% foetal calf serum. The cells are grown in 175 cm^2 tissue culture flasks and split approximately 1–2 times a week at a ratio of 1:2 using trypsin to detach the cells. WI-38 cells are plated onto 24 well plates at approximately 50,000 cells per well and grown overnight. To upregulate expression of the B1 receptor the cells are treated with 100 units/ml of IL-1β for 3 hours prior to the assay. The binding buffer is 10 mM HEPES in Hank's Balanced Salt solution pH 7.4 plus 1 mM phenanthroline and 0.14 mg/ml bacitracin. […] Non-specific binding is determined with 3 μM desArg^10kallidin. […] The cells are solubilised with 0.2% SDS and the amount of radioactivity in the samples determined by liquid scintillation counting. […]
Results are calculated by subtracting the value for non-specific binding from all values and calculating the amount of binding for each concentration of compound as a percentage of the specific binding with no compound. The IC50 values are calculated in ORIGIN using a logistic fit. KI values are calculated from the IC50 values using the Cheng-Prussoff equation (KI=IC50/(1+([RL]/Kd)) where [RL] is the radioligand concentration.

| SMILES | Ki [nM] |
| --- | --- |
| O=C(O)CN(CCOc1ccc2c(c1)CCC2)S(=O)(=O)c1ccc(Br)cc1Cl [Example 5, {(4-bromo-2-chloro-benzenesulfonyl)-[2-(indan-5-yloxy)-ethyl]-amino}-acetic acid] | ~300 |
| N=C(N)NCCC[C@@H](N)C(=O)N[C@@H](CCCNC(=N)N)C(=O)N1CCC[C@H]1C(=O)N1C[C@H](O)C[C@H]1C(=O)NCC(=O)N[C@@H](Cc1cccs1)C(=O)N[C@@H](CO)C(=O)N1Cc2ccccc2C[C@@H]1C(=O)N1[C@H](C(=O)O)C[C@@H]2CCCC[C@@H]21 [desArg^10HOE140, D-Arg-[Hyp^3, Thi^5, D-Tic^7, Oic^8]desArg^9 bradykinin] (H-[dR]RP[Hyp]G[2Thi]S[dTic][Oic]-OH; N-terminus and C-terminus assumed) | 63 |
